Measured values from PMC5097156, “Potent and selective chemical probe of hypoxic signalling downstream of HIF-α hydroxylation via VHL inhibition” (Nature Communications, 2016).

Legend:
Test in all cases: biochemical
Set-up in all cases: CEREP ExpresSProfile competition binding, remaining control specific binding of reference compound
Details in all cases: radioligand binding; read-out: Mean % of control specific binding (±sd)
A3 (h) = target: T1, A3 (h) (Homo sapiens, UniProt P0DMS8)
T1 construct: gene ADORA3

CXCR2 (IL-8B) (h) = CXCR2 (IL-8B) (h) (Homo sapiens, UniProt P25025)
beta 2 (h) = target: T2, beta 2 (h) (Homo sapiens, UniProt P07550)
T2 construct: gene ADRB2

M1 (h) = target: T3, M1 (h) (Homo sapiens, UniProt P11229)
T3 construct: gene CHRM1

5-HT transporter (h) = target: T4, 5-HT transporter (h) (Homo sapiens, UniProt P31645)
T4 construct: gene SLC6A4

dopamine transporter (h) = target: T5, dopamine transporter (h) (Homo sapiens, UniProt Q01959)
T5 construct: gene SLC6A3

beta 1 (h) = target: T6, beta 1 (h) (Homo sapiens, UniProt P08588)
T6 construct: gene ADRB1

Y1 (h) = target: T7, Y1 (h) (Homo sapiens, UniProt P25929)
T7 construct: gene NPY1R

A2A (h) = target: T8, A2A (h) (Homo sapiens, UniProt P29274)
T8 construct: gene ADORA2A

NK3 (h) = target: T9, NK3 (h) (Homo sapiens, UniProt P29371)
T9 construct: gene TACR3

VPAC1 (VIP1) (h) = target: T10, VPAC1 (VIP1) (h) (Homo sapiens, UniProt P32241)
T10 construct: gene VIPR1

kappa (KOP) = target: T11, kappa (KOP) (Rattus norvegicus, UniProt P34975)
T11 construct: gene Oprk1

MT1 (ML1A) (h) = target: T12, MT1 (ML1A) (h) (Homo sapiens, UniProt P48039)
T12 construct: gene MTNR1A
T12 sequence (P48039 whole entry): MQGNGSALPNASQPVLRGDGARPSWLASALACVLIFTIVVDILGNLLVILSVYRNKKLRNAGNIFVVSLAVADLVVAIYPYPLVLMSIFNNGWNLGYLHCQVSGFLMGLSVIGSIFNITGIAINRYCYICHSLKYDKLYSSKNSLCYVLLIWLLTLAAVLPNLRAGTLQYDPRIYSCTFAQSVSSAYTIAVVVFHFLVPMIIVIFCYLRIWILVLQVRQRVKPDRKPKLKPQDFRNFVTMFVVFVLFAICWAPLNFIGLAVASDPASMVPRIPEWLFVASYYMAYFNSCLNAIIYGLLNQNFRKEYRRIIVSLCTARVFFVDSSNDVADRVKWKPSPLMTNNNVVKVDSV

T10 sequence (P32241 whole entry): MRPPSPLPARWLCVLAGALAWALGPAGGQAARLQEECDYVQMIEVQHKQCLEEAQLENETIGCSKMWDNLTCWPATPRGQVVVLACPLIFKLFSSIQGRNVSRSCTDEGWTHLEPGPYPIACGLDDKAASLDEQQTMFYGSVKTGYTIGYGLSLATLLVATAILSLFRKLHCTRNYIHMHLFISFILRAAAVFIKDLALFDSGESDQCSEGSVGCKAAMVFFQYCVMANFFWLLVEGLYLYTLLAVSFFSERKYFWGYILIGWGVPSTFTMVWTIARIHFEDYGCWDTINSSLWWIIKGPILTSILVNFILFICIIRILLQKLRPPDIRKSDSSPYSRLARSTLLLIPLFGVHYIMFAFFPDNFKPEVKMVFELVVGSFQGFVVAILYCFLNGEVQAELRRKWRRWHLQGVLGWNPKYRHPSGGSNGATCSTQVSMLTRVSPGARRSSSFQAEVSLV
T8 sequence (P29274 whole entry): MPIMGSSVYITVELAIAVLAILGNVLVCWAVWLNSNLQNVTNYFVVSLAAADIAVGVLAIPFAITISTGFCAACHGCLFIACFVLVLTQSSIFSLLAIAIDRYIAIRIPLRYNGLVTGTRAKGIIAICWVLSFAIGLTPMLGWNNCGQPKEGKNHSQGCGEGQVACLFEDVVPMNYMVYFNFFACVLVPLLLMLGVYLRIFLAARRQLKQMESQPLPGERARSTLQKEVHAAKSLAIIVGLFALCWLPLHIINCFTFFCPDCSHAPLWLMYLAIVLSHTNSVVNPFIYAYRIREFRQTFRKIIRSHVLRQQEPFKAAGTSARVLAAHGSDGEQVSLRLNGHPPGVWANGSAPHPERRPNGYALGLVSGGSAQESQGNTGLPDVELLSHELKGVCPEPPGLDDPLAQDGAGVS
T1 sequence (P0DMS8 whole entry): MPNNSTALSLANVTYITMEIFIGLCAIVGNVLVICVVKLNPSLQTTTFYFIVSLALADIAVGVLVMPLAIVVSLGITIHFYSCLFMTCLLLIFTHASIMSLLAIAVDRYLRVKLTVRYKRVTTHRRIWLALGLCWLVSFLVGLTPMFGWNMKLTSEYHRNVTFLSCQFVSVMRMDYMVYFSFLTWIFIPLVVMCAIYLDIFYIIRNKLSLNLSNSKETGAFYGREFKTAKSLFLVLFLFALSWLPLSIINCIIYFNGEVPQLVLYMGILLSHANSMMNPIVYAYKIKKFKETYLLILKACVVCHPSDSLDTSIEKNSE
CXCR2 (IL-8B) (h), sequence (P25025 whole entry): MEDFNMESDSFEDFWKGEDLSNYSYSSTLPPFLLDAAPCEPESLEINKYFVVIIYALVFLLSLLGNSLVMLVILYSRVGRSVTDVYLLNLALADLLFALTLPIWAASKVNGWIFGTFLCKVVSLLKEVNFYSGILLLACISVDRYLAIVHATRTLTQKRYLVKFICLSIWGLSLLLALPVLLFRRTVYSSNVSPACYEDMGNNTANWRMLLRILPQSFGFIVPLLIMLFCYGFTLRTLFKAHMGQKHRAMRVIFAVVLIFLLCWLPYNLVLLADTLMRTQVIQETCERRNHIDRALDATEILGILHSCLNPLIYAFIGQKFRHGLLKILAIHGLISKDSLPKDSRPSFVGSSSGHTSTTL
T6 sequence (P08588 whole entry): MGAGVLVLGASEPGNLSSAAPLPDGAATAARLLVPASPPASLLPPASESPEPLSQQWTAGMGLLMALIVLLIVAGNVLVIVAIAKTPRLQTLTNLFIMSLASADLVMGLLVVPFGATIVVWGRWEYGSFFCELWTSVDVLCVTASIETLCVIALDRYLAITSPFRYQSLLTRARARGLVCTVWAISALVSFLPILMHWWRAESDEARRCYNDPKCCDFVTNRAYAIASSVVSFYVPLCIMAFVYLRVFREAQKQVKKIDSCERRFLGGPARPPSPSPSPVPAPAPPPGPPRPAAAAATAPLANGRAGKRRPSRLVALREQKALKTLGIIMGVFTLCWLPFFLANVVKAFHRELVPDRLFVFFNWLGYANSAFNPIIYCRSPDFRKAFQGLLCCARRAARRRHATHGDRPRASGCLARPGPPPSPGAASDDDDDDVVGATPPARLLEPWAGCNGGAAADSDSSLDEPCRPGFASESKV
T2 sequence (P07550 whole entry): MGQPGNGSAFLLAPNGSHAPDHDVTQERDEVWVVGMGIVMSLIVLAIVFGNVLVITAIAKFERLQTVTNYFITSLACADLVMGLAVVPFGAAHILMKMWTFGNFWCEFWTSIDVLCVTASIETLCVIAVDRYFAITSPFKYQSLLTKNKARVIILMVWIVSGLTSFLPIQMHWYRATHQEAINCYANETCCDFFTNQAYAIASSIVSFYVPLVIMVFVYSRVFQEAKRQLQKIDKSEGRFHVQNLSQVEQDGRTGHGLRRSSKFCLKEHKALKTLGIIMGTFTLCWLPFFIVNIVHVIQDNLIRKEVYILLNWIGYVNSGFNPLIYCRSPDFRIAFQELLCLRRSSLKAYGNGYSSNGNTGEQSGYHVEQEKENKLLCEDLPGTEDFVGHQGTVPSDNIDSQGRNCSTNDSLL
T11 sequence (P34975 whole entry): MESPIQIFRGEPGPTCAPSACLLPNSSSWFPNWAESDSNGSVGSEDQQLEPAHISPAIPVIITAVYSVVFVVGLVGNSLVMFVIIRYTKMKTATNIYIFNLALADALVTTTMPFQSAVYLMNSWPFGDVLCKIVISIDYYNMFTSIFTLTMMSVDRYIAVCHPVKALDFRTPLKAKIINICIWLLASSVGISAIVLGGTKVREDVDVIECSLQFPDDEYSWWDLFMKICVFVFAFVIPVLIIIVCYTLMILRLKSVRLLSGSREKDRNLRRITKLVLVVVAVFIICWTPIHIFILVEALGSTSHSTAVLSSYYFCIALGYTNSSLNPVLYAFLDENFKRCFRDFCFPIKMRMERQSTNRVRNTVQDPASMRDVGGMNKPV
T5 sequence (Q01959 whole entry): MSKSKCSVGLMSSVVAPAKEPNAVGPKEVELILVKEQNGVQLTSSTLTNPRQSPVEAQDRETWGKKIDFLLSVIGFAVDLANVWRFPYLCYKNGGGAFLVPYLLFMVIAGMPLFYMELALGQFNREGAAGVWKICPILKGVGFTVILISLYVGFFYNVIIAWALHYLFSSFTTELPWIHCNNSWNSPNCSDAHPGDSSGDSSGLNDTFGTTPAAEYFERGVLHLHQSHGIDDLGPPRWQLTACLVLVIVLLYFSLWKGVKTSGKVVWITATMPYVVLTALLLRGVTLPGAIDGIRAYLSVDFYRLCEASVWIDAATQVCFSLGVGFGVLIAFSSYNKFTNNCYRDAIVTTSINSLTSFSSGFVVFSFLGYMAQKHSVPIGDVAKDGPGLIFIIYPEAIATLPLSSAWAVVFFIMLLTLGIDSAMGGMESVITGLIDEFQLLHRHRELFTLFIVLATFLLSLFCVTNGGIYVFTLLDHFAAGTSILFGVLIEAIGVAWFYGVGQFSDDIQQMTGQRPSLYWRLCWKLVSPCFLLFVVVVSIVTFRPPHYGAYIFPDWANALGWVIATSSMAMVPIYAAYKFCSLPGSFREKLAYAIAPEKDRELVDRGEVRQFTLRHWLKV
T4 sequence (P31645 whole entry): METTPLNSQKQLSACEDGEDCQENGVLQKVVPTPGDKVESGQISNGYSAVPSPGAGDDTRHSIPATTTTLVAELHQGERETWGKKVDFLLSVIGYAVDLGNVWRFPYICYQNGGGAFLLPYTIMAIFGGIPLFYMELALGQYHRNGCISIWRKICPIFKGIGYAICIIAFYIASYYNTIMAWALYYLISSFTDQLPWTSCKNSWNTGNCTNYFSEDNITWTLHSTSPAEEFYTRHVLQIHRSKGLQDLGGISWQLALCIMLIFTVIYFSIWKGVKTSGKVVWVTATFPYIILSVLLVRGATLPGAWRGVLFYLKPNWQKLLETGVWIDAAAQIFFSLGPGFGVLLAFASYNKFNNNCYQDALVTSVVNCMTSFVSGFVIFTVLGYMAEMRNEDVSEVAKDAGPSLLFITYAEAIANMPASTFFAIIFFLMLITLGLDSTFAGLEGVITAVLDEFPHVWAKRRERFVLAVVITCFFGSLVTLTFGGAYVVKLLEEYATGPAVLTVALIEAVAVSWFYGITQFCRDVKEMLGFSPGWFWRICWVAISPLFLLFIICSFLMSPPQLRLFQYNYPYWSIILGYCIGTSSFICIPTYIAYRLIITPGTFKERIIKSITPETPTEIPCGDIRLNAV
T7 sequence (P25929 whole entry): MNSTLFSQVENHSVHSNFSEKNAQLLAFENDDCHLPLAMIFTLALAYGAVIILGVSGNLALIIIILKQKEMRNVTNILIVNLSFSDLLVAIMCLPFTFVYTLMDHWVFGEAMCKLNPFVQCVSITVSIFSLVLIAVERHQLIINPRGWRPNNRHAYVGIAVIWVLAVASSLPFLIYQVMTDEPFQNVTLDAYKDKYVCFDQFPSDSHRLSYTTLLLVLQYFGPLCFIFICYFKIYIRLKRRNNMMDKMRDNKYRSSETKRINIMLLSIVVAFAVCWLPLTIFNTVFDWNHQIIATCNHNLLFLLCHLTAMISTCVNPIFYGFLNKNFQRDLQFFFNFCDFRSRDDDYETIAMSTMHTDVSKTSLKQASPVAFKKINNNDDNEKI

Cc1ncsc1-c1ccc(CNC(=O)[C@@H]2C[C@@H](O)CN2C(=O)[C@@H](NC(=O)C2(C#N)CC2)C(C)(C)C)cc1 [VH298]
remaining binding at 50 µM (A3 (h)): 55%
remaining binding at 50 µM (CXCR2 (IL-8B) (h)): 102%
remaining binding at 50 µM (beta 2 (h)): 95%
remaining binding at 50 µM (M1 (h)): 94%
remaining binding at 50 µM (5-HT transporter (h)): 92%
remaining binding at 50 µM (dopamine transporter (h)): 90%
remaining binding at 50 µM (beta 1 (h)): 83%
remaining binding at 50 µM (Y1 (h)): 106%
remaining binding at 50 µM (A2A (h)): 121%
remaining binding at 50 µM (NK3 (h)): 94%
remaining binding at 50 µM (VPAC1 (VIP1) (h)): 85%
remaining binding at 50 µM (kappa (KOP)): 92%
remaining binding at 50 µM (MT1 (ML1A) (h)): 75%
